Assay results published in patent publication US20250215029A1 (Recludix Pharma, Inc., priority 2022, published 2025).
Like-named read-outs stand apart in the source and are kept apart here.

How the values were obtained:
[1] = molecular target: T1, Recombinant STAT3 protein (STAT3 (G127-I722)) (Homo sapiens, UniProt P40763); experiment: STAT3 Fluorescence Polarization (FP) Assay; format: binding; details: probe 5-FAM-GpYLPQTV-NH2 2 nM, 45-minute incubation
T1 construct: Recombinant STAT3 protein (STAT3 (G127-I722))
Method in brief: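 Compounds in serial dilution receive a premix of STAT3 (G127-I722, 25 nM) and fluorescent phosphotyrosine peptide 5-FAM-GpYLPQTV-NH2 (2 nM) at pH 7.4. After 45 min at room temperature, FP is measured and IC50 derived by nonlinear regression.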

[2] = molecular target: T2, Recombinant STAT6 protein (STAT6 (W123-T658)) (Homo sapiens, UniProt P42226); experiment: STAT6 Fluorescence Polarization (FP) Assay; format: binding; details: probe 5-FAM-Ap[…]-NH2 2 nM, 45-minute incubation
T2 construct: Recombinant STAT6 protein (STAT6 (W123-T658))
T2 sequence (P42226 123-658): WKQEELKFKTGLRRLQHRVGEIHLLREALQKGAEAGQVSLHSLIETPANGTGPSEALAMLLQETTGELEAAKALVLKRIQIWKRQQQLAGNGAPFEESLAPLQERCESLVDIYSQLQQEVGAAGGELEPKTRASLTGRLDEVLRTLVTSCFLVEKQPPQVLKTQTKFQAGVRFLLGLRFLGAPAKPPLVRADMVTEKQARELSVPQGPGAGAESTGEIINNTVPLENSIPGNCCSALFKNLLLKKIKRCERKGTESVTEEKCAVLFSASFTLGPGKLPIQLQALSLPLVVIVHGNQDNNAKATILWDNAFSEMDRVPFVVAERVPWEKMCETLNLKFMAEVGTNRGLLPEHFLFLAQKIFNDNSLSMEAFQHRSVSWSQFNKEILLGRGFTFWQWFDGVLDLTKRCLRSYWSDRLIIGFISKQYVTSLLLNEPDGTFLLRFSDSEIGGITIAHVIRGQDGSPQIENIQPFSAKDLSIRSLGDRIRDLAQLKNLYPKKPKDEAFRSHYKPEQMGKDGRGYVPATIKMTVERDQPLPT
Method in brief: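 Protein-probe mix (250 nM STAT6 W123-T658, 2 nM 5-FAM-pTyr peptide) in 10 mM HEPES pH 7.4, 50 mM NaCl, 1 mM EDTA, 0.05% Tween 20, 2 mM DTT; added to compound dilution series, 1% DMSO final; 45 min RT; FP read; IC50 via nonlinear regression.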

[3] = STAT3 25 nM, read-out: STAT3 (FP assay IC50)
[4] = STAT6 250 nM, read-out: STAT6 (FP assay IC50)
[5] = STAT3 (G127-I722) 25 nM, read-out: STAT3 (FP assay IC50 class)
[6] = STAT6 (W123-T658) 250 nM, read-out: STAT6 (FP assay IC50 class)

T1 sequence (P40763 127-722): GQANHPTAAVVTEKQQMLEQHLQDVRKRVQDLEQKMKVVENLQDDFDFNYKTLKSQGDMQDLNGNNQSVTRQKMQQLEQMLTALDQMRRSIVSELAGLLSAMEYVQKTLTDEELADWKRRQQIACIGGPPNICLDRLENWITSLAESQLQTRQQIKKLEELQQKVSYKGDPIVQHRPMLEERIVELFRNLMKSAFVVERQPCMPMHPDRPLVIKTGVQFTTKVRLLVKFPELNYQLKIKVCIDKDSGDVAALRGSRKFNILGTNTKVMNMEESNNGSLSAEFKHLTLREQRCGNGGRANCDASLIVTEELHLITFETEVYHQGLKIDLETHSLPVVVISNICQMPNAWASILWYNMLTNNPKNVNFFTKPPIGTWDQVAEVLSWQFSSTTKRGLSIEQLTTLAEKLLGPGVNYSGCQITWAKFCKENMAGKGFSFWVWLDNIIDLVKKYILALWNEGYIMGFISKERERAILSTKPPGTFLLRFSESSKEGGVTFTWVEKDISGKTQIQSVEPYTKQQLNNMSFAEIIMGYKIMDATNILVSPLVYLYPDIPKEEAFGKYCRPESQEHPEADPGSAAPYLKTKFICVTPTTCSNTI

Row | Structure (SMILES) | IC50 [1, 3] [µM] | IC50 [2, 4] [µM] | IC50 [1, 5] [µM] | IC50 [2, 6] [µM]
1 | COc1cccc([C@H]2CN(C(=O)[C@@H]3CC[C@@H]4CCCC[C@H](NC(=O)c5cc6cc(C(F)(F)P(=O)(O)O)ccc6s5)C(=O)N43)C[C@@H]2C#N)n1 (racemic) [Compound 105, ((2-(((3S,6S,10aS)-3-(rel-(trans) 3-cyano-4-(6-methoxypyridin-2-yl)pyrrolidine-1-carbonyl)-5-oxodecahydropyrrolo [1,2-a]azocin-6-yl)carbamoyl)benzo[b]thiophen-5-yl)difluoromethyl) phosphonic acid] | 0.1 to 1 | ≤ 0.3 | – | –
2 | O=C(N[C@H]1CCCC[C@H]2CC[C@@H](C(=O)N3CC4(CN(C(=O)Cc5ccccc5)C4)C3)N2C1=O)c1cc2cc(C(F)(F)P(=O)(O)O)ccc2s1 [Compound 42, (difluoro(2-(((3S,6S,10aS)-5-oxo-3-(6-(2-phenylacetyl)-2,6-diazaspiro[3.3]heptane-2-carbonyl)decahydropyrrolo [1,2-a]azocin-6-yl)carbamoyl)benzo[b]thiophen-5-yl)methyl) phosphonic acid] | 0.1 to 1 | ≤ 0.3 | – | –
3 | COc1ccnc(C(F)F)c1C1CN(C(=O)[C@@H]2CC[C@@H]3CCC[C@H](NC(=O)c4cc5cc(CP(=O)(O)O)ccc5s4)C(=O)N32)C1 [Compound 594, ((2-(((3S,6S,9aS)-3-(3-(2-(difluoromethyl)-4-methoxypyridin-3-yl)azetidine-1-carbonyl)-5-oxooctahydro-1H-pyrrolo[1,2-a]azepin-6-yl)carbamoyl)benzo [b]thiophen-5-yl)methyl) phosphonic acid] | – | – | 1 to 10 | 3 to 30
4 | O=C(N[C@@H]1C(=O)N2[C@@H](CCC[C@H]1C1CC1)CC[C@H]2C(=O)N1CC(c2cccnc2)C1)c1cc2cc(C(F)(F)P(=O)(O)O)ccc2s1 [Compound 233, ((2-(((3S,6S,7S,10aS)-7-cyclopropyl-5-oxo-3-(3-(pyridin-3-yl)azetidine-1-carbonyl)decahydropyrrolo[1,2-a]azocin-6-yl)carbamoyl)benzo[b]thiophen-5-yl)difluoromethyl)phosphonic acid] | – | – | < 0.1 | 3 to 30
5 | COC[C@@H]1CCN1c1ncncc1C1CN(C(=O)[C@@H]2CC[C@@H]3CCC[C@H](NC(=O)c4cc5cc(CP(=O)(O)O)ccc5s4)C(=O)N32)C1 [Compound 675, ((2-(((3S,6S,9aS)-3-(3-(4-((S)-2-(methoxymethyl)azetidin-1-yl)pyrimidin-5-yl)azetidine-1-carbonyl)-5-oxooctahydro-1H-pyrrolo[1,2-a]azepin-6-yl)carbamoyl)benzo [b]thiophen-5-yl)methyl) phosphonic acid] | – | – | < 0.1 | 3 to 30
6 | CCOC1(c2nncn2C)CN(C(=O)[C@@H]2CC[C@@H]3CCC[C@H](NC(=O)c4cc5cc(C(F)(F)P(=O)(O)O)ccc5s4)C(=O)N32)C1 [Compound 808, ((2-(((3S,6S,9aS)-3-(3-ethoxy-3-(4-methyl-4H-1,2,4-triazol-3-yl)azetidine-1-carbonyl)-5-oxooctahydro-1H-pyrrolo[1,2-a]azepin-6-yl)carbamoyl)benzo [b]thiophen-5-yl)difluoromethyl) phosphonic acid] | – | – | 0.1 to 1 | 3 to 30
7 | COC[C@@H]1CCN1c1ccncc1C1CN(C(=O)[C@@H]2CC[C@@H]3CCC[C@H](NC(=O)c4cc5cc(CP(=O)(O)O)ccc5s4)C(=O)N32)C1 [Compound 213, ((2-(((3S,6S,9aS)-3-(3-(4-((S)-2-(methoxymethyl)azetidin-1-yl)pyridin-3-yl)azetidine-1-carbonyl)-5-oxooctahydro-1H-pyrrolo[1,2-a]azepin-6-yl)carbamoyl)benzo[b]thiophen-5-yl)methyl)phosphonic acid] | – | – | < 0.1 | 3 to 30
8 | O=C(N[C@H]1CCCC[C@H]2CC[C@@H](C(=O)N3CCC(c4cccnc4)C3)N2C1=O)c1ccc2ccc(CP(=O)(O)O)cc2c1 (stereo partly drawn) [Compound 217, ((7-(((3S,6S,10aS)-5-oxo-3-(3-(pyridin-3-yl)pyrrolidine-1-carbonyl)decahydropyrrolo[1,2-a]azocin-6-yl)carbamoyl)naphthalen-2-yl)methyl)phosphonic acid] | – | – | 1 to 10 | 3 to 30
9 | CN(C)c1ccncc1C1CN(C(=O)[C@@H]2CC[C@@H]3CCC[C@H](NC(=O)c4cc5cc(CP(=O)(O)O)ccc5s4)C(=O)N32)C1 [Compound 512, ((2-(((3S,6S,9aS)-3-(3-(4-(dimethylamino)pyridin-3-yl)azetidine-1-carbonyl)-5-oxooctahydro-1H-pyrrolo[1,2-a]azepin-6-yl)carbamoyl)benzo[b]thiophen-5-yl)methyl)phosphonic acid] | – | – | < 0.1 | 3 to 30

Other lines, results leading:

Row | IC50 [1, 3] [µM] | IC50 [2, 4] [µM] | IC50 [1, 5] [µM] | IC50 [2, 6] [µM] | Structure (SMILES)
10 | – | – | < 0.1 | 3 to 30 | NC(=O)N1CC(NC(=O)[C@@H]2CC[C@@H]3CCCC[C@H](NC(=O)c4cc5cc(C(F)P(=O)(O)O)ccc5s4)C(=O)N32)C1 (stereo partly drawn) [Compound 549, ((2-(((3S,6S,10aS)-3-((1-carbamoylazetidin-3-yl)carbamoyl)-5-oxodecahydropyrrolo[1,2-a]azocin-6-yl)carbamoyl)benzo[b]thiophen-5-yl)fluoromethyl)phosphonic acid]
11 | – | – | 1 to 10 | 0.3 to 3 | Cn1ncc(C2CCN(C(=O)[C@@H]3CC[C@@H]4CCCC[C@H](NC(=O)c5cc6cc(C(F)P(=O)(O)O)ccc6s5)C(=O)N43)C2)cc1=O (stereo partly drawn) [Compound 913, (fluoro(2-(((3S,6S,10aS)-3-(3-(1-methyl-6-oxo-1,6-dihydropyridazin-4-yl)pyrrolidine-1-carbonyl)-5-oxodecahydropyrrolo [1,2-a]azocin-6-yl)carbamoyl)benzo [b]thiophen-5-yl)methyl) phosphonic acid]
12 | – | – | < 0.1 | 0.3 to 3 | Cc1ccncc1C1CN(C(=O)[C@@H]2CC[C@@H]3CCCC[C@H](NC(=O)c4cc5cc(C(F)(F)P(=O)(O)O)ccc5s4)C(=O)N32)C1 [Compound 499, (difluoro(2-(((3S,6S,10aS)-3-(3-(4-methylpyridin-3-yl)azetidine-1-carbonyl)-5-oxodecahydropyrrolo[1,2-a]azocin-6-yl)carbamoyl)benzo[b]thiophen-5-yl)methyl)phosphonic acid]
13 | – | – | 1 to 10 | 3 to 30 | Cn1nccc1N1CC[C@@H](NC(=O)[C@@H]2CC[C@@H]3CCCC[C@H](NC(=O)c4cc5cc(C(F)P(=O)(O)O)ccc5s4)C(=O)N32)C1 (stereo partly drawn) [Compound 542, (fluoro(2-(((3S,6S,10aS)-3-(((R)-1-(1-methyl-1H-pyrazol-5-yl)pyrrolidin-3-yl)carbamoyl)-5-oxodecahydropyrrolo[1,2-a]azocin-6-yl)carbamoyl)benzo[b]thiophen-5-yl)methyl)phosphonic acid]
14 | – | – | 1 to 10 | 0.3 to 3 | Cn1cc(F)c(N2C(=O)N(C(=O)[C@@H]3CC[C@@H]4CCCC[C@H](NC(=O)c5cc6cc(C(F)P(=O)(O)O)ccc6s5)C(=O)N43)C3(CC3)C2=O)cc1=O (stereo partly drawn) [Compound 581, (fluoro(2-(((3S,6S,10aS)-3-(6-(5-fluoro-1-methyl-2-oxo-1,2-dihydropyridin-4-yl)-5,7-dioxo-4,6-diazaspiro[2.4]heptane-4-carbonyl)-5-oxodecahydropyrrolo[1,2-a]azocin-6-yl)carbamoyl)benzo[b]thiophen-5-yl)methyl)phosphonic acid]
15 | – | – | < 0.1 | 0.3 to 3 | O=C(N[C@H]1CCC[C@H]2CC[C@@H](C(=O)N3CC(c4cncnc4N4CCC4)C3)N2C1=O)c1cc2cc([C@H](F)P(=O)(O)O)ccc2s1 (single isomer, unassigned) [Compound 689]
16 | – | – | 1 to 10 | 0.3 to 3 | COC(=O)N1CC[C@@H](NC(=O)[C@@H]2CC[C@@H]3CCCC[C@H](NC(=O)c4cc5cc(C(F)P(=O)(O)O)ccc5s4)C(=O)N32)C1 (stereo partly drawn) [Compound 522, (fluoro(2-(((3S,6S,10aS)-3-(((R)-1-(methoxycarbonyl)pyrrolidin-3-yl)carbamoyl)-5-oxodecahydropyrrolo[1,2-a]azocin-6-yl)carbamoyl)benzo[b]thiophen-5-yl)methyl)phosphonic acid]
17 | – | – | 1 to 10 | 3 to 30 | Cc1ccnc(F)c1C1CN(C(=O)[C@@H]2CC[C@@H]3CCC[C@H](NC(=O)c4cc5cc(CP(=O)(O)O)ccc5s4)C(=O)N32)C1 [Compound 505, ((2-(((3S,6S,9aS)-3-(3-(2-fluoro-4-methylpyridin-3-yl)azetidine-1-carbonyl)-5-oxooctahydro-1H-pyrrolo[1,2-a]azepin-6-yl)carbamoyl)benzo[b]thiophen-5-yl)methyl)phosphonic acid]
